Assay results reported in patent publication US10047151B2, “Methods for the treatment of cancer and inflammatory diseases using cereblon as a predictor” (Celgene Corporation, priority 2011, dated 2018).

What was measured:
Type in all cases: cell-based
IRF4 [1] = test: IRF4 protein expression in ABC-DLBCL cells (Western blot); details: OCI-Ly3 cells; 1-3 day treatments
Method: (§1) Cells were treated with test compounds or 0.1% DMSO for indicated times. Following incubation, cells were collected, pelleted with centrifugation, and immediately lysed in 0.1 ml lysis buffer containing 10 mM Tris-HCl pH 8.0, 10 mM EDTA, 150 mM NaCl, 1% NP-40, 0.5% SDS, 1 mM DTT, 1 mM Na3VO4, plus Complete protease inhibitor cocktail (Roche Applied Science, Indianapolis, Ind.), then processed with a Qiashredder™ (Qiagen, Valencia, Calif.) for 1 minute and frozen on dry ice. Samples were diluted with 6×SDS sample buffer and then boiled for 5 min. Approximately 30 μl of this mixture was loaded per lane on a Criterion Precast 4-12% Tris-HCl gel (Bio-Rad, Hercules, Calif.), electrophoresed, and transferred to nitrocellulose membranes (Bio-Rad, Hercules, Calif.). The membranes were blocked for 1 hour at room temperature using blocking buffer (LI-COR Biosciences, Lincoln, Nebr.), then incubated overnight at 4° C. with antibodies against either BCL-10, IRF4, CRBN or β-actin. Membranes were washed and incubated with IRDye Secondary Antibodies (1:30,000) for 1 hour at room temperature. A standard protocol was then followed for signal detection, using the Odyssey® Infrared Imaging System and software (LI-COR Biosciences, Lincoln, Nebr.).
To understand the molecular mechanism of lenalidomide on ABC-DLBCL cells, the effects of lenalidomide on IRF4 expression in these cells were investigated. […] Lenalidomide-induced decrease of IRF4 expression occurred as early as 1 day of drug treatment, with similar kinetics to that of the inhibitors (zVRPR-fmk and LY-333,531, respectively) of MALT1 and PKCβ, two key enzymes involved in NF-κB activation upon BCR engagement in B cells.

[2] = tested on: CARD11-BCL-10-MALT1 (CBM) complex; test: MALT1-induced BCL-10 cleavage (CBM complex activity) in ABC-DLBCL cells; details: OCI-Ly3 cells
Method: as §1
This mutation has been reported to cause constitutive formation and activation of CARD11-BCL-10-MALT1 (CBM) complex of BCR signaling pathway, leading to NF-κB overactivation in lymphoma cells. See Lenz, G., et al., Science 2008, 319: 1676-9; Thome, M. et al., Cold Spring Harb Perspect Biol. 2010; 2: a003004. To investigate the potential involvement of CBM complex in lenalidomide-induced IRF4 inhibition in these cells, the effect of lenalidomide on the complex activity was examined by measuring MALT1 paracaspase enzymatic activity. MALT1 is activated upon association with BCL-10 and CARD11 to form active CBM complex and then cleaves its binding partners, such as BCL-10.

T cells = test: Ubiscan ubiquitinated peptide quantification in T cells
Source text: The effects of lenalidomide and pomalidomide on protein ubiquination were investigated using CST Ubiscan technology. Treated samples were sent to Cell Signaling Technology for ubiquinated peptide enrichment and quantification by LC/MS/MS.

IRF4 [3] = test: IRF4 protein level in H929 cells (Western blot)
Source text: In H929 cells, the cell cycle arrest in G1 phase by the drugs coincides with a reduction of tumor suppressor, pRb, phosphorylation and the oncogene and myeloma survival factor IRF4.

pRb = pRb phosphorylation in H929 cells (Western blot)
H929 cells = test: Cell cycle progression (cells in S phase) in siRNA-transfected H929 cells; details: 72 h treatment
Method: The effect of CRBN in H929 cells was also evaluated. H929 cells were transfected with mock, negative control siRNA and CRBN-siRNA-7 for 24, 48, 72 and 96 h. Cells were treated 24 h after transfection with DMSO (0.1%), pomalidomide (1 μM), lenalidomide (10 μM) or 3-(5-amino-2-methyl-4-oxo-4H-quinazolin-3-yl)-piperidine-2,6-dione (“Compound B”) for 1, 2, 3 days and the effect on cell cycle and proliferation investigated. Lenalidomide, pomalidomide and Compound B induced a delay of cell cycle progression, measured as the decrease of the number of cells in S phase, in control mock and negative control siRNA-transfected cells after 72 h treatment (FIG. 2C). Knockdown of CRBN markedly abrogated immunomodulatory drugs-induced delay in cell cycle progression in H929 cells (FIG. 2C) from of 50 to 4% for lenalidomide, from 70 to 15% for pomalidomide, and from 65 to 22% for Compound B.

Compound	IRF4 levels (IRF4 [1])	BCL-10 cleavage [2]	Ub-proteins increased in abundance (T cells)	proteins decreased in abundance (T cells)	ubiquinated peptides of greater abundance vs. DMSO control (T cells)	total level of protein IRF4 (IRF4 [3])	phosphorylation of pRB (pRb)	delay in cell cycle progression (decrease of the number of cells in S phase) (H929 cells; H929 cells with knockdown of CRBN) [%]	delay in cell cycle progression (decrease of the number of cells in S phase) (H929 cells; control mock and negative control siRNA-transfected H929 cells) [%]
CN(C)C[C@@H]1CCn2cc(c3ccccc32)C2=C(C(=O)NC2=O)c2cn(c3ccccc23)CCO1 [PKCβ inhibitor, LY-333,531]	neither lenalidomide nor the PKCβ inhibitor had any appreciable effect	neither the PKCβ inhibitor nor lenalidomide had any effect							
zVRPR-fmk [MALT1 inhibitor]	complete inhibition								
Cc1nc2cccc(N)c2c(=O)n1C1CCC(=O)NC1=O (stereo not shown) [Compound B, 3-(5-amino-2-methyl-4-oxo-4H-quinazolin-3-yl)-piperidine-2,6-dione]			IKZF3, RPL19, PCM1 and NEDD8	GNB2L1 and HNRNPR	SECTM1 and ZC3H15	decreased	decreased	22	65
